# Columns and labels:
# [1] = tested on: mouse cerebellar brain slices; test: Oxygen glucose deprivation (OGD) in organotypic cerebellar brain slices, propidium iodide staining; type: cell-based; conditions: genistein 200 μM
# Procedure: TRPC3c-mediated brain injury arising from transient oxygen glucose deprivation (OGD) was evaluated in organotypic cerebellar brain slices using the TRPC channel blocker Genistein. The brain slices (400 μm) were prepared as described in Example 5. Mice ([…] strain, 6-8 weeks old) were anaesthetized with pentobarbital and decapitated. The brain was removed and submerged in ice cold modified artificial cerebral spinal fluid (ACSF) solution containing 4 mM KCl, 5 mM MgCl2, 1 mM CaCl2, 26 mM NaHCO3, 10 mM glucose, 246 mM sucrose equilibrated with 95% CO2, 5% O2. Slices were cut with a VT1200 vibratome (Leica, Germany) and were allowed to recover in culture medium (75% Minimum Essential Medium (MEM), 25% heat-inactivated horse serum, 25 mM HEPES, 1 mM glutamine, 27.7 mM glucose) for at least 1 h in a tissue culture incubator (37° C., 5% CO2 in air). Hurtado de Mendoza et al. (2011) J Vis Exp. (51). (pii):2564).
# For OGD-induced neuronal loss, the brain slices were placed in an anaerobic chamber (Coy Laboratory Products, USA; 100% N2) in OGD medium (75% MEM, 25% Hanks Buffered Salt Solution, 1 mM glutamine) Radley et a. (2012). Neurosci Lett. 506 (1):131-5). Controls included slices placed directly into culture medium in a tissue culture incubator (37° C., 5% CO2 in air). Slices were exposed to OGD for 0, 15 and 30 minutes, with or without 200 μM genistein (n=2 for each condition). […]
# [2] = target: T1, recombinant mouse TRPC3c channels (Mus musculus, UniProt Q9QZC1, DEL811-838); test: Whole-cell patch clamp of CCh-activated current, HEK293 cells expressing TRPC3c; type: cell-based; conditions: TRPC3c+CCh (100 μM)+genistein 200 μM pre-incubation; Vh=−50 mV; n=7; CCh alone −809.4±36.9 pA
# T1 construct: expressed in transfected cells; host or cells: HEK293 cells, stably transfected (pIRES-DsRed2 vector)
# T1 sequence (Q9QZC1 with tags, fused parts or gaps DEL811-838): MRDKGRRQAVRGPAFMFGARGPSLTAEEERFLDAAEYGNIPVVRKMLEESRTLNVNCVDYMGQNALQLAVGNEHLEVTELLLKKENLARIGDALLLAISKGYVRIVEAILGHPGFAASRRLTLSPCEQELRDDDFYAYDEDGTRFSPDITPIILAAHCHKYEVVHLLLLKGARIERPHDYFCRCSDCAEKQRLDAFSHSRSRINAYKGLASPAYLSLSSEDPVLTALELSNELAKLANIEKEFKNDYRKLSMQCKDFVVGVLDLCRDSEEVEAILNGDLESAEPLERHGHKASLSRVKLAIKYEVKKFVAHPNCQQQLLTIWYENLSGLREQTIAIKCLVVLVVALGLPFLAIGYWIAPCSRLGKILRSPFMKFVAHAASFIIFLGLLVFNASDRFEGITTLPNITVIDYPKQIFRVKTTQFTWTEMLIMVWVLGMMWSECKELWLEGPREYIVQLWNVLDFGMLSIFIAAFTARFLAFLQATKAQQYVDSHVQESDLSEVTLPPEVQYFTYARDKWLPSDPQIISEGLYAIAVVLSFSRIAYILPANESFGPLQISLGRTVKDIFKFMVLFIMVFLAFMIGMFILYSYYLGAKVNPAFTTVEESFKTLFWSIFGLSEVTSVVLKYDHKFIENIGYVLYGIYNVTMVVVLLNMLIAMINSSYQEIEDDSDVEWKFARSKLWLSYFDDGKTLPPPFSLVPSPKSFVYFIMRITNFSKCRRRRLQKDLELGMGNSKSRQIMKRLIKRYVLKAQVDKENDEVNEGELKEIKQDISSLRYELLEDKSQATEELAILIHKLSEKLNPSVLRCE
# Procedure: For whole cell patch clamp recordings, HEK293 cells stably expressing recombinant TRPC3 ion channels were grown to 85-95% confluence on a coverslip coated with poly-D-lysine and collagen (both from Sigma-Aldrich, U.S.A.). Recording pipettes were made from borosilicate glass (GC120TF-10, Harvard Apparatus, U.K.). The pipette resistance was at 3-6 MΩ (PC-10, Narishige, Japan). The internal solution had the composition: 130 mM CsCl, 2 mM MgCl2, 10 mM EGTA, 0.3 mM ATP, 0.03 mM GTP, pH at 7.3 adjusted with CsOH. Cells on the coverslip were placed in a microchamber on an inverted microscope (Leica DMIL, Germany) and superfused with HEPES-buffered physiological salt solution (HPSS) containing 120 mM NaCl, 5.4 mM KCl, 2 mM CaCl2, 1.13 mM MgCl2, 10 mM glucose, 20 mM HEPES (pH 7.4) at room temperature.
# Whole cell patch clamp recordings were made following a gigaseal, using an Axopatch 200 patch clamp amplifier (Molecular Devices, U.S.A.) controlled by software (pClamp 10.2, Molecular Devices, U.S.A.). Cell capacitance was cancelled and series resistance was compensated by ˜90%. […] Carbachol (used to activate TRPC3 channels via the endogenously expressed M3 AChR) was purchased from Sigma-Aldrich (U.S.A.). DHPG (—(S)-2-amino-2-(3,5-dihydroxyphenyl)acetic acid), a group I mGluR agonist (Schoepp et al. 1994), was purchased from Tocris Bioscience (U.K.). […]
smiles,measurement,setting,value
"O=c1c(-c2ccc(O)cc2)coc2cc(O)cc(O)c12 [genistein, 4′, 5,7-trihydroxyisoflavone]",propidium iodide fluorescence in granule cell layer and molecular layer after OGD,[1],reduced propidium iodide fluorescence
same,neuronal loss and oedema in the Purkinje cell layer after OGD,"[1]; 15 mins and 30 mins OGD, n=2 slices per condition",provided protection from the neuronal loss and oedema in the PCL
same,mean peak CCh-activated whole-cell inward current,[2],−35.4±8.1 pA
